The source of these data is patent publication US20240101599A1, “PEPTIDE, CELL GROWTH PROMOTER, PROTEIN PRODUCTION PROMOTER, CULTURE MEDIUM, CELL GROWTH METHOD USING PEPTIDE, AND PROTEIN PRODUCTION METHOD USING PEPTIDE” (Maruhachi Muramatsu, Inc., priority 2020, published 2024).

The first assay has as its system CHO-K1. The assay is described as follows: Relationship between number of days of cell growth of each peptide and cell number (absorbance). The format is cell-based. The conditions noted are these: Day 0; 1.1 mM GPP, 2.2 mM DGP, 2.1 mM GEK, 2.0 mM AGK; MEMα without FBS. As to the method: Peptides having the sequences of Gly-Pro-Pro (GPP), Asp-Gly-Pro (DGP), Gly-Glu-Lys (GEK), and Ala-Gly-Lys (AGK) were synthesized to prepare each peptide solution such that the concentration was a concentration at which the cell number increased the most within a range of 0 mM to 5 mM. In other words, Gly-Pro-Pro (GPP) was adjusted to 11 mM, Asp-Gly-Pro (DGP) was adjusted to 22 mM, Gly-Glu-Lys (GEK) was adjusted to 21 mM, and Ala-Gly-Lys (AGK) was adjusted to 20 mM, and an amount of 1/10 of the total culture medium volume was added to each well immediately before the cell culture test such that final concentrations were 1.1 mM, 2.2 mM, 2.1 mM, and 2.0 mM, respectively.
A cell suspension prepared such that CHO-K1 (RIKEN BioResource Research Center, cell number: RCB2330) was at 3×10^4 cells/mL was seeded in a 96-well plate at 100 μL/well and cultured in an incubator at 37° C. and 5% CO2 for 24 hours. As a culture medium, an MEMα culture medium (Gibco) containing 10% FBS was used.
After removing the culture medium from each well and washing with the MEMα culture medium (100 μL), 90 μL of a new MEMα culture medium was dispensed into each well, and each peptide solution (10 μL) was added (total 100 μL/well) to perform culture for 0 to 5 days. Every day, 10 μL/well of a viable cell count measurement reagent SF (Nacalai Tesque Inc.) was added, and a color reaction was carried out in an incubator at 37° C. and 5% CO2 for 2 hours to measure an absorbance at 450 nm with a plate reader. A reference wavelength was 630 nm. It was confirmed that the absorbance at 450 nm correlated with the cell number. A similar culture test was performed using a system containing neither peptide nor FBS as a comparative sample.
The above preparation, culture, and measurement were performed with n=3, and Table 12 and FIG. 12 show the absorbance and the standard deviation of each peptide solution for each day.
As to Asp-Gly-Pro [DGP], the “OD450 (average value n = 3)” value was 0.1607.

Take Gly-Pro-Pro [GPP]: the “OD450 (average value n = 3)” value came to 0.2023.

Staying with this assay, now noted: Day 1; 1.1 mM GPP, 2.2 mM DGP, 2.1 mM GEK, 2.0 mM AGK; MEMα without FBS.
Consider Asp-Gly-Pro [DGP], for which the “OD450 (average value n = 3)” value is on record as 0.4507.

For Gly-Pro-Pro [GPP], the “OD450 (average value n = 3)” value is recorded as 0.5267.

Staying with this assay, now noted: Day 2; 1.1 mM GPP, 2.2 mM DGP, 2.1 mM GEK, 2.0 mM AGK; MEMα without FBS.
Take Asp-Gly-Pro [DGP]: the “OD450 (average value n = 3)” value was 0.6840.

Gly-Pro-Pro [GPP]: the “OD450 (average value n = 3)” value came to 0.7083.

Still in this assay, the particulars now being: Day 3; 1.1 mM GPP, 2.2 mM DGP, 2.1 mM GEK, 2.0 mM AGK; MEMα without FBS.
For the substance Asp-Gly-Pro [DGP], the “OD450 (average value n = 3)” value worked out at 0.7700.

In the case of Gly-Pro-Pro [GPP], the “OD450 (average value n = 3)” value turned out to be 0.8350.

The assay is the same for the next values; noted with them: Day 4; 1.1 mM GPP, 2.2 mM DGP, 2.1 mM GEK, 2.0 mM AGK; MEMα without FBS.
On to Asp-Gly-Pro [DGP], for which the “OD450 (average value n = 3)” value is given as 0.9313.

With Gly-Pro-Pro [GPP], the “OD450 (average value n = 3)” value is reported as 1.0227.

Still in this assay, the particulars now being: Day 5; 1.1 mM GPP, 2.2 mM DGP, 2.1 mM GEK, 2.0 mM AGK; MEMα without FBS.
Asp-Gly-Pro [DGP]: the “OD450 (average value n = 3)” value amounted to 0.9363.

Consider Gly-Pro-Pro [GPP], for which the “OD450 (average value n = 3)” value is recorded as 0.9003.

In a further assay the test system is CHO DP-12. Briefly: Cell growth test and protein production test on each peptide and combination of peptides on coating agent. Particulars: average n=3; ELISA; one type of tripeptide: GPP 1.1 mM, DGP 2.2 mM, GEK 2.1 mM, AGK 2.0 mM; 5 days. The format is cell-based. As for the experimental part: Peptides having the sequences of Gly-Pro-Pro (GPP), Asp-Gly-Pro (DGP), Gly-Glu-Lys (GEK), and Ala-Gly-Lys (AGK) were synthesized to prepare each peptide solution such that the concentration was a concentration at which the cell number increased the most within a range of 0 mM to 5 mM. In other words, Gly-Pro-Pro (GPP) was adjusted to 11 mM, Asp-Gly-Pro (DGP) was adjusted to 22 mM, Gly-Glu-Lys (GEK) was adjusted to 21 mM, and Ala-Gly-Lys (AGK) was adjusted to 20 mM, and an amount of 1/10 of the total culture medium volume was added to each well immediately before the cell culture test such that final concentrations were 1.1 mM, 2.2 mM, 2.1 mM, and 2.0 mM, respectively. Poly-L-lysine (Peptide Institute, Inc., Poly-L-Lysine Hydrochloride, code: 3075) was prepared to 0.1 mg/mL, and 200 μL was dispensed into each well of a 24-well plate, which was left to stand in an incubator at 37° C. for 2 hours. After removing the residual liquid with an aspirator, rinsing was performed with distilled water, irradiation was performed with a UV lamp in a clean bench without a lid, and drying was performed overnight to sterilize. A cell suspension prepared such that CHO DP-12 (ATCC, Cat. No. CRL-12445) was at 2×10^4 cells/well and 500 μL was seeded in a 24-well plate and cultured in an incubator at 37° C. and 5% CO2 for 24 hours. As a culture medium, a DMEM basal medium in which 200 nM of methotrexate and 2 μg/mL of insulin were blended in a DMEM culture medium (Gibco) containing 10% FBS was used.
After removing the culture medium from each well and washing with the DMEM basal medium (500 μL), 450 μL of a new DMEM basal medium was dispensed into each well, and each peptide solution (50 μL) was added (total 500 μL/well) to perform culture for 5 days.
As peptides, in addition to single GPP, DGP, GEK, and AGK, combinations of GPP+GEK, GPP+AGK, DGP+GEK, GEK+AGK, DGP+AGK, GPP+GEK+AGK, GPP+DGP+AGK, and GPP+DGP+GEK were used. A similar culture test was performed using a system containing neither peptide nor FBS as a comparative sample.
In order to measure the amount of protein produced, 100 μL of the culture medium supernatant was recovered in a 1.5 mL tube and diluted to quantitatively determine the amount of protein produced by an ELISA method.
In order to recover the cells, the culture medium in each well was recovered in a 1.5 mL tube to be rinsed with 200 μL of the DMEM basal medium, and the rinsed liquid was also recovered in the same 1.5 mL tube. Thereafter, 100 μL of trypsin was added and incubated for 3 minutes. After rinsing with 300 μL of the DMEM basal medium containing 10% FBS, the rinsed liquid was also recovered in the same 1.5 mL tube. After rinsing again with 200 μL of the DMEM basal medium containing 10% FBS, the rinsed liquid was also recovered in the same 1.5 mL tube.
A centrifugation operation was performed on the cells recovered in the 1.5 mL tube. The centrifugation conditions were 1,000 rpm, 10 minutes, and 4° C.
The supernatant was removed, and 300 μL of Cold PBS (phosphate buffered saline) was added to perform a centrifugation operation under the same conditions. The present operation was repeated twice.
Suspension was carried out with 100 μL of Binding Buffer, and 2 μL of propidium iodide (PI) was added and stirred in the tube to cause a reaction for 15 minutes at room temperature and with light shielding. Thereafter, the viable cell count and the cell viability were measured with a flow cytometer.
The above preparation, culture, and measurement were performed with n=3. Table 17, FIG. 17, Table 20, FIG. 20, Table 23, and FIG. 23 show the viable cell count in each peptide solution. Table 18, FIG. 18, Table 21, FIG. 21, Table 24, and FIG. 24 show the cell viability in each peptide solution. Table 19, FIG. 19, Table 22, FIG. 22, Table 25, and FIG. 25 show the amount of protein produced in each peptide solution.
With Asp-Gly-Pro [DGP], the “Amount of protein produced, Average” value was determined as 5.24 mg/L.

Take Gly-Pro-Pro [GPP]: the “Amount of protein produced, Average” value came out at 5.86 mg/L.

Still in this assay, the particulars now being: average n=3; one type of tripeptide: GPP 1.1 mM, DGP 2.2 mM, GEK 2.1 mM, AGK 2.0 mM; 5 days.
On to Asp-Gly-Pro [DGP], for which the “Viability, Average” value was 86.9.

As to Gly-Pro-Pro [GPP], the “Viability, Average” value turned out to be 88.2.

Staying with this assay, now noted: one type of tripeptide: GPP 1.1 mM, DGP 2.2 mM, GEK 2.1 mM, AGK 2.0 mM; poly-L-lysine coating, 5 days, n=3.
Consider Asp-Gly-Pro [DGP], for which the “Cells cell count, Average” value is recorded as 14.6333 ×10^4.

Take Gly-Pro-Pro [GPP]: the “Cells cell count, Average” value is reported as 15.5502 ×10^4.

Still in this assay, the particulars now being: replicate 1; ELISA; one type of tripeptide: GPP 1.1 mM, DGP 2.2 mM, GEK 2.1 mM, AGK 2.0 mM; 5 days.
As for Asp-Gly-Pro [DGP], the “Amount of protein produced, 1” value worked out at 5.37 mg/L.

With Gly-Pro-Pro [GPP], the “Amount of protein produced, 1” value is reported as 5.78 mg/L.

The assay is the same for the next values; noted with them: replicate 1; one type of tripeptide: GPP 1.1 mM, DGP 2.2 mM, GEK 2.1 mM, AGK 2.0 mM; 5 days.
With Asp-Gly-Pro [DGP], the “Viability, 1” value amounted to 86.3.

Regarding Gly-Pro-Pro [GPP], the “Viability, 1” value is 88.9.

Still in this assay, the particulars now being: replicate 2; ELISA; one type of tripeptide: GPP 1.1 mM, DGP 2.2 mM, GEK 2.1 mM, AGK 2.0 mM; 5 days.
In the case of Asp-Gly-Pro [DGP], the “Amount of protein produced, 2” value turned out to be 4.90 mg/L.

Gly-Pro-Pro [GPP]: the “Amount of protein produced, 2” value is listed as 5.31 mg/L.

The assay is the same for the next values; noted with them: replicate 2; one type of tripeptide: GPP 1.1 mM, DGP 2.2 mM, GEK 2.1 mM, AGK 2.0 mM; 5 days.
Take Asp-Gly-Pro [DGP]: the “Viability, 2” value is 87.3.

On to Gly-Pro-Pro [GPP], for which the “Viability, 2” value is recorded as 87.9.

The same assay, now with this note: replicate 3; ELISA; one type of tripeptide: GPP 1.1 mM, DGP 2.2 mM, GEK 2.1 mM, AGK 2.0 mM; 5 days.
Regarding Asp-Gly-Pro [DGP], the “Amount of protein produced, 3” value was found to be 5.44 mg/L.

For the substance Gly-Pro-Pro [GPP], the “Amount of protein produced, 3” value turned out to be 6.50 mg/L.

The assay is the same for the next values; noted with them: replicate 3; one type of tripeptide: GPP 1.1 mM, DGP 2.2 mM, GEK 2.1 mM, AGK 2.0 mM; 5 days.
Turning to Asp-Gly-Pro [DGP], the “Viability, 3” value was 87.2.

For Gly-Pro-Pro [GPP], the “Viability, 3” value was 87.9.
